Values belong to the compound of their own block, whether it stands above or below them.
How the values were obtained:
[1] = test system: HEK293 cells; assay: Cholesterol assay (free/esterified cholesterol) in HEK293 cells; assay type: cell-based, human; settings: for membrane cholesterol (membrane free cholesterol levels): 20 μM
Experimental: (§1) Chinese hamster ovary (CHO), N-Rel^30 (a mutant CHO cell line deficient in the peroxisomal enzyme dihydroxyacetonephosphate acyltransferase), and human embryonic kidney (HEK293) cells were grown in 10 cm^2 dishes in DMEM/Ham's F12 (1:1) containing 10% FBS. Cells were incubated with plasmalogen precursors dissolved in ethanol (final ethanol concentration of 0.1%) and harvested for plasmalogen analysis by LC-MS-MS^31, and cholesterol and cholesterol ester analyses utilizing a commercial colorimetric kit (BioVision #K613).
(§2) HEK 293 cells, cultured in DMEM, 10% FBS at 37° C., 5% CO2, were seeded the day before the treatment. The following day, cells membranes were loaded with exogenous cholesterol at a concentration of 10 μg/ml media using methyl-β-cyclodextrin as the carrier to deliver cholesterol as described (Rong et al., 2003).
Cells were treated with the plasmalogen precursor PPI-1005 or with ethanol as the control. Cells were harvested after 48 hours using Versene: TryPLe express cocktail, washed with PBS. Lipids were extracted with chloroform containing 1% Triton X-100. The organic fraction was recovered and dried under a stream of nitrogen. The dried lipids were resuspended in cholesterol reaction buffer (Biovision, Mountain View, Calif.), and the total, free and esterified fractions of cholesterol were quantified using the cholesterol quantification kit (Biovision, Mountain View, Calif.) as per the manufacturer's recommendations. Cholesterol was initially calculated as μg/million cells, and reported as a percentage of control conditions for each experiment.

[2] = test system: N-Rel cells; assay: Membrane cholesterol and cholesterol ester analysis (colorimetric kit) in N-Rel cells; assay type: cell-based, Chinese hamster; settings: for membrane free cholesterol / membrane cholesterol esters (esterified cholesterol): 20 μM, 48 hr incubation; for membrane cholesterol levels: N-Rel cells
Experimental: as §1

[3] = test system: N-Rel cells; assay: Plasmalogen analysis by LC-MS/MS in N-Rel cells incubated with plasmalogen precursors; assay type: cell-based, Chinese hamster; settings: for conversion to PlsEtn species: cells with impaired plasmalogen biosynthesis capacity (N-Rel)
Experimental: as §1

[4] = Oral dosing of rabbits: plasma plasmalogens, phosphatidylethanolamines and DHA by LC-MS/MS; assay type: in vivo, New Zealand rabbits
Experimental: (§3) Male New Zealand rabbits (1.8-2.5 kg) were orally dosed with PPI-1011, neat in hard gelatin capsules (size 3). For time course studies, rabbits were dosed with 200 mg/kg of PPI-1011 and animals sacrificed via euthenol overdose at 1, 3, 6, 12, 18, 24 and 48 hr. Blood was collected by cardiac puncture and plasma frozen at −70° C. for later analysis. Kidney and liver also were harvested and stored at −70° C. for later analysis. These studies were conducted as 2 experiments with overlapping groups at 12 hrs (Exp. 1: 1, 3, 6, and 12 hrs; Exp. 2: 12, 18, 24 and 48 hrs). Controls were harvested at each timepoint. Plasmalogens and lipids were extracted and analyzed by LC-MS/MS as previously reported (Goodenowe et al., 2007).

[5] = Oral dosing of rabbits: kidney plasmalogens and DHA; assay type: in vivo, New Zealand rabbits; settings: 200 mg/kg orally; 1, 3, 6 and 12 hours
Experimental: as §3

[6] = Oral dosing of rabbits: liver plasmalogens and DHA; assay type: in vivo, New Zealand rabbits; settings: 200 mg/kg orally; 12, 18, 24 and 48 hours
Experimental: as §3

[7] = test system: CHO cells; assay: Plasmalogen analysis by LC-MS/MS in CHO cells incubated with plasmalogen precursors; assay type: cell-based, Chinese hamster; settings: for DHA plasmalogens in CHO cells: 72 hr, relative to CHO controls; for conversion to PlsEtn species: cells with unimpaired plasmalogen biosynthesis capacity (CHO)
Experimental: as §1

[8] = test system: APP; assay: Immunoblotting of APP in HEK293 cells; assay type: cell-based, human; settings: wild-type HEK293 cells, not loaded with cholesterol
Experimental: (§4) HEK293 cells were treated as described in the amyloid assay. The cell pellet was washed in PBS and lysed in a RIPA buffer containing a protease inhibitor cocktail (Sigma, St. Louis, […].). Protein in the cell lysate was quantified using the Bio-Rad Protein Assay (Bio-Rad, Hercules, Calif.). The following antibodies were used for western analyses: APP (Calbiochem, Darmstadt, Germany), BACE1 and ADAM10 (Millipore, Temecula, Calif.), sAPPα (IBL, Gunma, Japan), SOAT1 (Santa Cruz Biotechnology Inc., CA), and β-actin (Sigma, St. Louis, […].). Immunoprecipitation was carried out to estimate sAPPα in the conditioned medium. Briefly, antibody to sAPPα was added to conditioned media and incubated for 16 hours at 4° C. IP was carried out by incubating with protein A/G agarose beads for 6 hours at 4° C. Beads were washed with PBS and the eluted proteins were detected by immunoblotting with anti-sAPPα antibody. Band intensities were quantified using Image Processing and Analysis in Java (ImageJ) software (National Institutes of Health, Bethesda, Md.)

[9] = test system: HEK293 cells; assay: Amyloid assay: Aβ secreted into conditioned medium of HEK293 cells (ELISA); assay type: cell-based, human; settings: for levels of AB-40 / levels of AB-42: normal cells and cholesterol loaded cells
Experimental: as §2
HEK293 cells were loaded with exogenous cholesterol as described, and treated with a PPI 1005 or with ethanol as a control. Conditioned media from the treated cells was collected at the end of a 48 hour incubation period. For assaying Aβ1-42 content, the conditioned media was enriched using Amicon ultracentrifugal filter devices (Millipore, Billerica, Mass.) prior to loading into the microplate. ELISA was carried out as per the manufacturer's recommendations (Covance Labs, Princeton, N.J.). The reactions were quenched 25 minutes after addition of the substrate, and the absorbance was read at 495 nm. The experiment was carried out in triplicate. Values were calculated as pg/ml of conditioned media, and were normalized to the amount of Aβ detected in the conditioned media from untreated, cholesterol loaded control HEK293 cells.

[10] = test system: SOAT1; assay: Immunoblotting of membrane-resident protein SOAT1 in HEK293 cells; assay type: cell-based, human
Experimental: as §4

[11] = test system: sAPPα; assay: Immunoprecipitation/immunoblot of sAPPα in conditioned medium of HEK293 cells; assay type: cell-based, human; settings: 20 μM; cholesterol loaded HEK293 cells
Experimental: as §4

[12] = test system: ADAM10; assay: Immunoblotting of membrane-resident protein ADAM10 in HEK293 cells; assay type: cell-based, human
Experimental: as §4

[13] = test system: BACE1; assay: Immunoblotting of BACE1 (β-secretase) in HEK293 cells; assay type: cell-based, human
Experimental: as §4

[14] = cholesterol loaded HEK293 cells (FIG. 18A)
[15] = wild-type HEK293 cells, not loaded with cholesterol

Structure (SMILES): CCC=CCC=CCC=CCC=CCC=CCC=CCCC(=O)OC(CO)COC(=O)CCCCCCCCCCCCCCC (stereo not shown) [16:0*:DHA glycerol, reference compound]
membrane cholesterol (membrane free cholesterol levels) ([1]; 48 hr incubation): inactive
membrane free cholesterol [2]: inactive

Structure (SMILES): CC/C=C\C/C=C\C/C=C\C/C=C\C/C=C\C/C=C\CCC(=O)OC(COCCCCCCCCCCCCCCCC)COC(=O)C(CS)NC(C)=O (stereo not shown) [PPI-1014, (4Z,7Z,10Z,13Z,16Z,19Z)-1-(2-acetamido-3-mercaptopropanoyloxy)-3-(hexadecyloxy)propan-2-yl docosa-4,7,10,13,16,19-hexaenoate]
incorporation in N-Rel ethanolamine plasmalogens (PlsEtn) and phosphatidylethanolamines (PtdEtn) ([3]; 72 hours, 5, 10 and 20 μM): structure-specific and concentration-dependent incorporation

Structure (SMILES): CCC=CCC=CCC=CCC=CCC=CCC=CCCC(=O)OC(CO)COCCCCCCCCCCCCCCCCCC (stereo not shown) [18:0/DHA glycerol]
membrane cholesterol (membrane free cholesterol levels) ([1]; 48 hr incubation): decrease

steady-state levels of circulating DHA ([4]; dose of 1000 mg/kg versus 500 mg/kg): did not further increase
deacylation at sn-2, releasing docosahexaenoic acid (DHA) ([4]; oral dose of 200 mg/kg): observed
oral bioavailability ([4]; rabbit): orally bioavailable
Structure (SMILES): CC/C=C\C/C=C\C/C=C\C/C=C\C/C=C\C/C=C\CCC(=O)OC(COCCCCCCCCCCCCCCCC)COC(=O)CCCC[C@@H]1CCSS1 (stereo partly drawn) [PPI-1011, (4Z,7Z,10Z,13Z,16Z,19Z)-1-(5-((R)-1,2-dithiolan-3-yl)pentanoyloxy)-3-(hexadecyloxy)propan-2-yl docosa-4,7,10,13,16,19-hexaenoate]
new steady-state level of plasma plasmalogens and phosphatidylethanolamines versus dose ([4]; 6 hours after oral doses of 10, 75, 200 mg/kg): dose-dependent manner from 10 to 200 mg/kg
steady-state levels of plasmalogens and phosphatidylethanolamines above that obtained with 200 mg/kg ([4]; further increases in dose (500, 1000 mg/kg), 6 hours): did not increase
reference phosphatidylethanolamine 16:0/18:0 in plasma ([4]; oral dose of 200 mg/kg): No change
incorporation into circulating plasmalogens ([4]; oral dose of 200 mg/kg, rabbit plasma): incorporated into circulating plasmalogens
tissue plasmalogens and DHA in rabbit kidney [5]: augmentation
tissue plasmalogens and DHA in rabbit liver [6]: augmentation

Structure (SMILES): CCCCCCCCCCCCCCCCOCC(O)CO (stereo not shown) [chimyl alcohol, reference compound]
DHA plasmalogens in CHO cells [7]: no effect
DHA-plasmalogens in N-Rel cells ([3]; expressed relative to N-Rel controls): increased

Structure (SMILES): CC/C=C\C/C=C\C/C=C\C/C=C\C/C=C\C/C=C\CCC(=O)OC(CO)COCCCCCCCCCCCCCCCC (stereo not shown) [PPI-1005]
APP abundance [8]: No change
basal and cholesterol (25.8 μM)-stimulated Aβ42 secretion ([9]; 20 μM): decreases
Aβ42 content in the conditioned medium, drop below cholesterol-loaded levels ([9]; 20 μM, cholesterol loaded HEK293 cells, 48 hour incubation): 70%
levels of AB-40 [9]: decreased
levels of AB-42 [9]: decreased
DHA plasmalogens in CHO cells [7]: concentration-dependent (72 hr) increase
conversion to PlsEtn species [7]: effectively converted to PlsEtn species
membrane cholesterol (membrane free cholesterol levels) ([1]; 48 hr incubation): decrease
free cholesterol content of the cell membrane ([1]; cholesterol loaded HEK293 cells, 48 hours): significantly reduced
SOAT1 upregulation compared with the cholesterol loaded condition [10, 14]: approximately 25%
concentration-dependent increase in abundance of SOAT1 [10, 15]: 50%
membrane cholesterol esters (esterified cholesterol) [2]: increases
membrane free cholesterol [2]: decreases
membrane cholesterol levels [2]: significant reduction
increase in sAPPα species in the conditioned medium [11]: 73%
increase in ADAM10 [12, 14]: 63%
concentration-dependent increase in abundance of ADAM10 [12, 15]: 35%
β-secretase abundance ([13]; 20 μM, cholesterol loaded HEK293 cells): restored to normal levels
BACE I abundance [13, 15]: No change
levels of total DHA plasmalogens in N-Rel cells, relative to control CHO cells ([3]; 72 hr incubation): restored in a concentration-dependent manner
DHA-PlsEtn level ([3]; N-Rel cells): 80 % of control values
conversion to PlsEtn species [3]: effectively converted to PlsEtn species

Structure (SMILES): CC/C=C\C/C=C\C/C=C\C/C=C\C/C=C\C/C=C\CCC(=O)OC(COCCCCCCCCCCCCCCCC)COC(=O)CC(C[N+](C)(C)C)OC(C)=O (stereo not shown) [PPI-1009, 2-acetoxy-4-(2-((4Z,7Z,10Z,13Z,16Z,19Z)-docosa-4,7,10,13,16,19-hexaenoyloxy)-3-(hexadecyloxy)propoxy)-N,N,N-trimethyl-4-oxobutan-1-aminium]
basal and cholesterol (25.8 μM)-stimulated Aβ42 secretion ([9]; 10 μM): acted in a similar manner
levels of AB-40 [9]: decreased
levels of AB-42 [9]: decreased
DHA plasmalogens in CHO cells [7]: concentration-dependent (72 hr) increase
conversion to PlsEtn species [7]: effectively converted to PlsEtn species
membrane cholesterol levels, concentration response ([1]; 48 hr incubation): concentration-dependently decrease
membrane cholesterol esters (esterified cholesterol) [2]: augmentation
membrane free cholesterol [2]: most robust decreases
membrane cholesterol levels [2]: concentration-dependently decrease
time course of incorporation into plasmalogens ([3]; 10 μM, 0, 6, 12, 24, 48 and 72 hr): incorporation into plasmalogens
cellular levels of chimyl alcohol or the associated alkenyl-acyl-glycerol ([3]; 10 μM, 0-72 hr, chimyl alcohol by GC-MS): lack of effect
conversion to PlsEtn species [3]: effectively converted to PlsEtn species

From US9334235B2, “Plasmalogen compounds, pharmaceutical compositions containing the same and methods for treating diseases of the aging” (Phenomenome Discoveries Inc., priority 2008, dated 2016)
